The record followed here is patent US8293780B1, “Anti-cancer agents based on 6-trifluoromethoxybenzimidazole derivatives and method of making” (U.S. Department of Energy, priority 2009, dated 2012).

Counter-ions that a name gives are not always drawn.

The test concerns DU-145 cells (prostate carcinoma). Briefly: DU-145 cell growth inhibition, tetrazolium dye XTT viability endpoint. Type of test: cell-based. The note with it: Homo sapiens, triplicate, five half-logarithmic dilutions, read-out: DU145 TC50. Here is the method: Cell Preparation: DU-145 cells (prostate carcinoma; catalog #HTB-81) were obtained from the ATCC and propagated in EMEM with Earles BSS supplemented with 10% FBS (fetal bovine serum), 2 mM L-glutamine, 100 U/mL penicillin, 100 μg/mL streptomycin, 1 mM sodium pyruvate, and 0.1 mM NEAA (Non-Essential Amino Acids). DU-145 cells were passaged in T-75 flasks prior to use in the assay. On the day preceding the assay, the cells were split 1:2 to assure they were in an exponential growth phase at the time of infection. Total cell and viability quantification was performed using a hemocytometer and Trypan Blue dye exclusion. Cell viability was greater than 95% for the cells to be utilized in the assay. The cells were re-suspended at 1×10^5 cells per mL in tissue culture medium and added to the drug-containing microtiter plates in a volume of 100 μL.
Plate Format: Each plate contained cell control wells (cells only), experimental compound evaluation wells (cells plus compound only), and test compound colorimetric control wells (compound only). Samples were initially tested in triplicate for inhibition of DU-145 cell growth at 10 μM concentration for each compound with a single colorimetric control well. Secondary assay tested the compounds in triplicate using five half-logarithmic dilutions.
Tetrazolium Dye XTT Viability Endpoint: Following incubation at 37° C. in a 5% CO2 incubator, the test plates were stained with the tetrazolium dye XTT (2,3-bis(2-methoxy-4-nitro-5-sulfophenyl)-5-[(phenylamino)carbonyl]-2H-tetrazolium hydroxide). XTT was metabolized by the mitochondrial enzymes of metabolically active cells to a soluble formazan product, allowing rapid quantitative analysis of the inhibition of DU-145 […] by anti-prostate cancer test substances. XTT solution was prepared daily as a stock of 1 mg/mL in RPMI1640. Phenazine methosulfate (PMS) solution was prepared at 0.15 mg/mL in PBS (Phosphate—Buffered Saline) and stored in the dark at −20° C. XTT/PMS stock was prepared immediately before use by adding 40 μL of PMS per ml of XTT solution. Fifty microliters of XTT/PMS was added to each well of the plate and the plate was reincubated for 4 hours at 37° C. Plates were sealed with adhesive plate sealers and shaken gently or inverted several times to mix the soluble formazan product and the plate was read spectrophotometrically at 450/650 nm with a Molecular Devices Vmax plate reader.
IC50 represents the concentration of a drug that is required for 50% inhibition in vitro.
A general note: Formazan colour is commonly taken as a measure of viable cells.
With `Cc1nc2ccc(OC(F)(F)F)cc2[nH]1`, the CC50 is over 10 µM. Consider `CCc1nc2ccc(OC(F)(F)F)cc2[nH]1`, for which the CC50 was over 10 µM. Turning to `FC(F)(F)Oc1ccc2nc(-c3ccccc3)[nH]c2c1`, the CC50 was 0.9 µM.

As for `FC(F)(F)Oc1ccc2nc(-c3ccco3)[nH]c2c1`, the CC50 is 1.8 µM. Turning to `FC(F)(F)Oc1ccc2nc(-c3cccnc3)[nH]c2c1`, the CC50 is 4.6 µM. On to `CC/C(=C(\c1ccccc1)c1ccc(OCCN(C)C)cc1)c1ccccc1` [Tamoxifen Citrate, reference compound], for which the CC50 is 20 µM.
